What was measured:
Type in all cases: cell-based
[1] = test system: AGS cells; assay: Inhibition of ERK phosphorylation of AGS cells (HTRF method); conditions: Homo sapiens, AGS, phosphorylated ERK/total ERK ratio, 1 h incubation
Description: AGS cells (Nanjing Cobioer, CBP60476) were cultured in RPMI1640 (Hyclone, SH30809.01) complete medium containing 10% fetal bovine serum. On the first day of the experiment, the AGS cells were seeded into a 96-well plate with complete medium at a density of 40,000 cells/well to form 190 µL of cell suspension per well. The plate was incubated overnight in a cell incubator at 37 °C with 5% CO2.
The next day, 10 µL of serially-diluted test compound prepared from the complete medium was added to each well. The final concentrations of the compound were 9 concentration points obtained by 5-fold serial dilution from 10 µM. A blank control containing 0.5% DMSO was set. The well plate was incubated in a cell incubator at 37 °C with 5% CO2 for 1 h. After completion of incubation, the 96-well cell culture plate was taken out, the medium was removed by pipetting, 200 µL PBS (Shanghai BasalMedia Technologies Co., Ltd., B320) was added to each well, and the cells were washed once. PBS was removed by pipetting, 50 µL of lysis buffer (Cisbio, 64KL1FDF) containing a blocking solution (blocking reagent, Cisbio, 64KB1AAC) was added to each well, and the well plate was lysed on a shaker for 40 min at room temperature with shaking. After lysis, the lysate was pipetted and mixed well, 16 µL of lysate was transferred to two HTRF 96-well assay plates (Cisbio, 66PL96100) per well, and then 4 µL of premixed phosphorylated ERK1/2 antibody solution (Cisbio, 64AERPEG) or 4 µL of premixed total ERK1/2 antibody solution (Cisbio, 64NRKPEG) was added to these two plates. The microplate was sealed with a sealing membrane, centrifuged for 1 min in a microplate centrifuge, and incubated overnight at room temperature in the dark. On the third day, the fluorescence values at an excitation wavelength of 337 nm and at emission wavelengths of 665 nm and 620 nm were read using an ENVISION multifunctional microplate reader (PerkinElmer, ENVISION).
Table 1. Inhibitory activity data for ERK phosphorylation of AGS cells

[2] = test system: AGS cells; assay: Inhibition of 3D proliferation of AGS cells (CellTiter-Glo 3D); conditions: Homo sapiens, 120 h incubation
Description: AGS cells (Nanjing Cobioer, CBP60476) were cultured in a complete medium, namely RPMI1640 medium (Hyclone, SH30809.01) containing 10% fetal bovine serum (Corning, 35-076-CV). On the first day of the experiment, the AGS cells were seeded into a 96-well low adsorption plate (Corning, CLS7007-24EA) at a density of 1,000 cells/well using complete medium to form 90 µL of cell suspension per well. The plate was centrifuged at 2,000rpm for 5 min at room temperature and then incubated overnight in a cell incubator at 37 °C with 5% CO2.
(§1) The next day, 10 µL of serially-diluted test compound prepared from the complete medium was added to each well. The final concentrations of the compound of GP2d cells were 9 concentration points obtained by 3-fold serial dilution from 1 µM, and the final concentrations of the compound of AGS cells were 9 concentration points obtained by 3-fold serial dilution from 10 µM. A blank control containing 0.5% DMSO was set. The well plate was incubated in a cell incubator at 37 °C with 5% CO2 for 120 h. On the seventh day, the 96-well cell culture plate was taken out, 50 µL CellTiter-Glo® 3D reagent (Promega, G9682) was added into each well, the plate was shaken at room temperature for 25 min, pipetted and mixed well, 50 µL of the solution was transferred into a white impermeable 96-well plate (PE, 6005290), and the luminescence signal values were read using a multifunctional microplate reader (PerkinElmer, ENVISION).
(§2) Table 2. Inhibitory activity data for 3D proliferation of AGS and GP2d cells

[3] = test system: GP2d cells; assay: Inhibition of 3D proliferation of GP2d cells (CellTiter-Glo 3D); conditions: 120 h incubation
Description: GP2d cells (Nanjing Cobioer, CBP60010) were cultured in a complete medium, namely DMEM/high glucose medium (Hyclone, SH30243.01) containing 10% fetal bovine serum (Corning, 35-076-CV). On the first day of the experiment, GP2d cells were seeded into a 96-well low adsorption plate (Corning, CLS7007-24EA) with complete medium at a density of 1,000 cells/well to form 90 µL of cell suspension per well. The plate was centrifuged at 2,000 rpm for 5 min at room temperature and then incubated overnight in a cell incubator at 37 °C with 5% CO2.
as §1, §2

Row | Structure (SMILES) | IC50 [1] | IC50 [2] | IC50 [3]
1 | Oc1cc(-c2nc3c4c(nc(OC[C@@]56CCCN5C[C@H](F)C6)nc4c2F)N2C[C@H]4CC[C@H](N4)[C@H]2CO3)c2c(F)cccc2c1 [Example 3-p1, 5-Fluoro-4-((5aS,6S,9R)-1-fluoro-12-(((2R,7aS)-2-fluorotetrahydro-1H-pyrrolizin-7a(5 H)-yl)methoxy)-5a,6,7,8,9,10-hexahydro-5H-4-oxa-3,10a,11,13,14-pentaaza-6,9-methanonaphtho[1,8-ab]heptalen-2-yl)naphthalen-2-ol] | 17 nM | 95.3 nM | 13 nM
2 | CCc1cccc2cc(O)cc(-c3nc4c5c(nc(OC[C@@]67CCCN6C[C@H](F)C7)nc5c3F)N3C[C@H]5CC[C@H](N5)[C@H]3CO4)c12 [Example 4-p1, 5-Ethyl-4-((5aS,6S,9R)-1-fluoro-12-(((2R,7aS)-2-fluorotetrahydro-1H-pyrrolizin-7a(5H )-yl)methoxy)-5a,6,7,8,9,10-hexahydro-5H-4-oxa-3,10a,11,13,14-pentaaza-6,9-methanonaphtho[1,8-ab]heptalen-2-yl)naphthalen-2-ol] | 2 nM | 14.5 nM | 0.8 nM
3 | Oc1cc(Cl)c(C2CC2)c(-c2nc3c4c(nc(OC[C@@]56CCCN5C[C@H](F)C6)nc4c2F)N2C[C@H]4CC[C@H](N4)[C@H]2CO3)c1 [Example 6-p1, 3-Chloro-4-cyclopropyl-5-((5aS,6S,9R)-1-fluoro-12-(((2R,7aS)-2-fluorotetrahydro-1H-pyrrolizin-7a(5H)-yl)methoxy)-5a,6,7,8,9,10-hexahydro-5H-4-oxa-3,10a,11,13,14-pentaaza-6,9-methanonaphtho[1,8-ab]heptalen-2-yl)phenol] | 1.2 nM | 32.9 nM | 7.2 nM
4 | Oc1cc(-c2nc3c4c(nc(OC[C@@]56CCCN5C[C@H](F)C6)nc4c2F)N2C[C@H]4CC[C@H](N4)[C@H]2CO3)c2c(F)c(F)ccc2c1 [Example 8-p1, 5,6-Difluoro-4-((5aS,6S,9R)-1-fluoro-12-(((2R,7aS)-2-fluorotetrahydro-1H-pyrrolizin-7 a(5H)-yl)methoxy)-5a,6,7,8,9,10-hexahydro-5H-4-oxa-3,10a,11,13,14-pentaaza-6,9-methanonaphtho[1,8-ab]heptalen-2-yl)naphthalen-2-ol] | 1.4 nM | 50.3 nM | 1.3 nM
5 | CCc1c(F)ccc2cc(O)cc(-c3nc4c5c(nc(OC[C@@]67CCCN6C[C@H](F)C7)nc5c3F)N3C[C@H]5CC[C@H](N5)[C@H]3CO4)c12 [Example 9-p1, 5-Ethyl-6-fluoro-4-((5aS,6S,9R)-1-fluoro-12-(((2R,7aS)-2-fluorotetrahydro-1H-pyrrolizin-7a(5H)-yl)methoxy)-5a,6,7,8,9,10-hexahydro-5H-4-oxa-3,10a,11,13,14-pentaaza-6,9-methanonaphtho[1,8-ab]heptalen-2-yl)naphthalen-2-ol] | 0.4 nM | 5.8 nM | 0.9 nM
6 | CCc1c(F)ccc2cc(O)cc(-c3nc4c5c(nc(OCC6(CN7CCC[C@H]7CO)CC6)nc5c3F)N3C[C@H]5CC[C@H](N5)[C@H]3CO4)c12 [Example 17, 5-Ethyl-6-fluoro-4-((5aS,6S,9R)-1-fluoro-12-((1-(((S)-2-(hydroxymethyl)pyrrolidin-1-yl)methyl)cyclopropyl)methoxy)-5a,6,7,8,9,10-hexahydro-5H-4-oxa-3,10a,11,13,14-pentaaza-6,9-methanonaphtho[1,8-ab]heptalen-2-yl)naphthalen-2-ol] | 2.8 nM | 52.2 nM | 4.9 nM

Reference: patent EP4361157A1, “FUSED TETRACYCLIC COMPOUND, PREPARATION METHOD THEREFOR AND APPLICATION THEREOF IN MEDICINE” (Jiangsu Hengrui Pharmaceuticals Co., Ltd., priority 2021, dated 2022)
